The supplement of paper PMC10307832

Compound: CC(C)CCN1c2nc(Nc3cc(F)c(O)c(F)c3)ncc2N(C)C(=O)C1C [BI-D1870] + CCNC(=O)c1noc(-c2cc(C(C)C)c(O)cc2O)c1-c1ccc(CN2CCOCC2)cc1 [Luminespib] (partner 0.01 µM)
Test: relative viability (nuclei count vs DMSO), 5 days (fraction); higher = more cells survive
Settings: first compound 0.04 µM
Outline: (§1)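 Medians of duplicate plates are given as relative viability. That measure is the nuclei count in treated wells divided by the count in vehicle wells. Counts were taken on 4× images of lung cancer cell lines in 1536-well plates, 5 days after pin-tool dosing the day after seeding with one drug alone or a fixed anchor-drug dose plus five library-drug doses (not always all listed) in √10 steps.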

Cell Line | relative viability
NCI-H2023 | 1.03
HCC-15 | 0.314
NCI-H1793 | 0.176
PC-14 | 0.237
EKVX | 0.836
LC-2-ad | 1.2
NCI-H1944 | 0.841
NCI-H1975 | 0.27
RERF-LC-KJ | 1.42
ABC-1 | 0.581
NCI-H358 | 0.441
NCI-H650 | 0.867
PC-3 [JPC-3] | 0.783

Same assay, conditions: first compound 0.1265 µM

Cell Line | relative viability
NCI-H2023 | 0.48
HCC-15 | 0.205
NCI-H1793 | 0.16
PC-14 | 0.279
EKVX | 0.819
LC-2-ad | 0.953
NCI-H1944 | 0.691
NCI-H1975 | 0.101
RERF-LC-KJ | 1.16
ABC-1 | 0.776
NCI-H358 | 0.158
NCI-H650 | 0.641
PC-3 [JPC-3] | 0.645

Same assay, conditions: first compound 0.4 µM

Cell Line | relative viability
NCI-H2023 | 0.685
HCC-15 | 0.332
NCI-H1793 | 0.194
PC-14 | 0.126
EKVX | 0.879
LC-2-ad | 0.943
NCI-H1944 | 0.669
NCI-H1975 | 0.308
RERF-LC-KJ | 1.22
NCI-H358 | 0.256
NCI-H650 | 0.732
PC-3 [JPC-3] | 0.717

Same assay, conditions: first compound 1.265 µM

Cell Line | relative viability
NCI-H2023 | 0.795
HCC-15 | 0.34
NCI-H1793 | 0.146
PC-14 | 0.233
EKVX | 0.993
LC-2-ad | 0.911
NCI-H1944 | 0.879
NCI-H1975 | 0.257
RERF-LC-KJ | 1.3
ABC-1 | 0.512
NCI-H358 | 0.313
NCI-H650 | 0.918
PC-3 [JPC-3] | 0.825

Same assay, conditions: first compound 4 µM

Cell Line | relative viability
NCI-H2023 | 0.385
HCC-15 | 0.344
NCI-H1793 | 0.167
PC-14 | 0.119
EKVX | 0.792
LC-2-ad | 0.769
NCI-H1944 | 0.763
NCI-H1975 | 0.208
RERF-LC-KJ | 0.552
ABC-1 | 0.371
NCI-H358 | 0.319
NCI-H650 | 0.481
PC-3 [JPC-3] | 0.677

Compound: CC(C)CCN1c2nc(Nc3cc(F)c(O)c(F)c3)ncc2N(C)C(=O)C1C [BI-D1870] + Cc1nc(Nc2ncc(C(=O)Nc3c(C)cccc3Cl)s2)cc(N2CCN(CCO)CC2)n1 [Dasatinib] (partner 0.075 µM)
Test: as above
Settings: first compound 0.04 µM
Outline: as §1

Cell Line | relative viability
NCI-H2023 | 0.619
HCC-15 | 0.656
NCI-H1793 | 0.423
PC-14 | 0.27
EKVX | 0.719
LC-2-ad | 1.05
NCI-H1944 | 0.216
NCI-H1975 | 0.497
RERF-LC-KJ | 0.968
ABC-1 | 0.598
NCI-H358 | 0.177
NCI-H650 | 0.454
PC-3 [JPC-3] | 1

Same assay, conditions: first compound 0.1265 µM

Cell Line | relative viability
NCI-H2023 | 0.378
HCC-15 | 0.533
NCI-H1793 | 0.334
PC-14 | 0.241
EKVX | 0.456
LC-2-ad | 0.576
NCI-H1944 | 0.214
NCI-H1975 | 0.314
RERF-LC-KJ | 0.72
ABC-1 | 0.53
NCI-H358 | 0.172
NCI-H650 | 0.419
PC-3 [JPC-3] | 0.892

Same assay, conditions: first compound 0.4 µM

Cell Line | relative viability
NCI-H2023 | 0.577
HCC-15 | 0.582
NCI-H1793 | 0.396
PC-14 | 0.272
EKVX | 0.522
LC-2-ad | 0.473
NCI-H1944 | 0.215
NCI-H1975 | 0.359
RERF-LC-KJ | 0.762
NCI-H358 | 0.195
NCI-H650 | 0.431
PC-3 [JPC-3] | 1.01

Same assay, conditions: first compound 1.265 µM

Cell Line | relative viability
NCI-H2023 | 0.617
HCC-15 | 0.517
NCI-H1793 | 0.39
PC-14 | 0.239
EKVX | 0.554
LC-2-ad | 0.578
NCI-H1944 | 0.253
NCI-H1975 | 0.399
RERF-LC-KJ | 0.814
ABC-1 | 0.577
NCI-H358 | 0.257
NCI-H650 | 0.403
PC-3 [JPC-3] | 1.12

Same assay, conditions: first compound 4 µM

Cell Line | relative viability
NCI-H2023 | 0.426
HCC-15 | 0.287
NCI-H1793 | 0.309
PC-14 | 0.259
EKVX | 0.454
LC-2-ad | 0.43
NCI-H1944 | 0.238
NCI-H1975 | 0.295
RERF-LC-KJ | 0.495
ABC-1 | 0.409
NCI-H358 | 0.288
NCI-H650 | 0.35
PC-3 [JPC-3] | 0.947

Compound: O=c1ncccn1[C@@H]1O[C@H](CO)[C@@H](O)[C@H]1O [Zebularine] + Cc1cc(Nc2cc(N3CCN(C)CC3)nc(Sc3ccc(NC(=O)C4CC4)cc3)n2)n[nH]1 [Tozasertib] (partner 0.1 µM)
Test: as above
Settings: first compound 1 µM
Outline: as §1

Cell Line | relative viability
NCI-H2023 | 0.462
HCC-15 | 0.308
NCI-H1793 | 0.401
PC-14 | 0.479
EKVX | 0.44
LC-2-ad | 0.413
NCI-H1944 | 0.274
NCI-H1975 | 1.11
RERF-LC-KJ | 0.533
ABC-1 | 0.193
NCI-H358 | 0.111
NCI-H650 | 0.756
PC-3 [JPC-3] | 0.963

Same assay, conditions: first compound 3.162 µM

Cell Line | relative viability
NCI-H2023 | 0.319
HCC-15 | 0.414
NCI-H1793 | 0.354
PC-14 | 0.513
EKVX | 0.409
LC-2-ad | 0.427
NCI-H1944 | 0.268
NCI-H1975 | 0.684
RERF-LC-KJ | 0.433
ABC-1 | 0.196
NCI-H358 | 0.101
NCI-H650 | 0.656
PC-3 [JPC-3] | 0.924

Same assay, conditions: first compound 10 µM

Cell Line | relative viability
NCI-H2023 | 0.242
HCC-15 | 0.339
PC-14 | 0.1
EKVX | 0.3
LC-2-ad | 0.347
NCI-H1944 | 0.213
NCI-H1975 | 0.412
RERF-LC-KJ | 0.458
ABC-1 | 0.164
NCI-H358 | 0.0883
NCI-H650 | 0.524
PC-3 [JPC-3] | 0.485

Same assay, conditions: first compound 31.62 µM

Cell Line | relative viability
NCI-H2023 | 0.283
HCC-15 | 0.386
NCI-H1793 | 0.206
PC-14 | 0.0922
EKVX | 0.374
LC-2-ad | 0.422
NCI-H1944 | 0.254
NCI-H1975 | 0.293
RERF-LC-KJ | 0.553
ABC-1 | 0.189
NCI-H358 | 0.108
NCI-H650 | 0.346
PC-3 [JPC-3] | 0.668

Same assay, conditions: first compound 100 µM

Cell Line | relative viability
NCI-H2023 | 0.169
HCC-15 | 0.179
NCI-H1793 | 0.174
PC-14 | 0.0781
EKVX | 0.335
LC-2-ad | 0.396
NCI-H1944 | 0.234
NCI-H1975 | 0.23
RERF-LC-KJ | 0.473
ABC-1 | 0.148
NCI-H358 | 0.0887
NCI-H650 | 0.238
PC-3 [JPC-3] | 0.473

Compound: CC(C)CCN1c2nc(Nc3cc(F)c(O)c(F)c3)ncc2N(C)C(=O)C1C [BI-D1870] + O=C(CCCCCCC(=O)Nc1ccccc1)NO [Vorinostat] (partner 1 µM)
Test: as above
Settings: first compound 0.04 µM
Outline: as §1

Cell Line | relative viability
NCI-H2023 | 0.795
HCC-15 | 0.81
NCI-H1793 | 0.914
PC-14 | 0.825
EKVX | 0.779
LC-2-ad | 0.696
NCI-H1944 | 0.894
NCI-H1975 | 0.747
RERF-LC-KJ | 0.66
ABC-1 | 1.2
NCI-H358 | 0.834
NCI-H650 | 0.478
PC-3 [JPC-3] | 0.817

Same assay, conditions: first compound 0.1265 µM

Cell Line | relative viability
NCI-H2023 | 0.507
HCC-15 | 0.782
NCI-H1793 | 0.718
PC-14 | 0.625
EKVX | 0.707
LC-2-ad | 0.646
NCI-H1944 | 0.5
NCI-H1975 | 0.617
RERF-LC-KJ | 0.633
ABC-1 | 1.01
NCI-H358 | 0.61
NCI-H650 | 0.407
PC-3 [JPC-3] | 0.795

Same assay, conditions: first compound 0.4 µM

Cell Line | relative viability
NCI-H2023 | 0.571
HCC-15 | 0.786
NCI-H1793 | 0.615
PC-14 | 0.58
EKVX | 0.64
LC-2-ad | 0.701
NCI-H1944 | 0.484
NCI-H1975 | 0.686
RERF-LC-KJ | 0.669
ABC-1 | 1.07
NCI-H358 | 0.519
NCI-H650 | 0.413
PC-3 [JPC-3] | 0.81

Same assay, conditions: first compound 1.265 µM

Cell Line | relative viability
NCI-H2023 | 0.643
HCC-15 | 0.987
NCI-H1793 | 1.04
PC-14 | 0.699
EKVX | 0.814
LC-2-ad | 0.705
NCI-H1944 | 0.57
NCI-H1975 | 0.664
RERF-LC-KJ | 0.642
ABC-1 | 1.2
NCI-H358 | 0.386
NCI-H650 | 0.413
PC-3 [JPC-3] | 0.625

Same assay, conditions: first compound 4 µM

Cell Line | relative viability
NCI-H2023 | 0.457
HCC-15 | 0.678
NCI-H1793 | 0.606
PC-14 | 0.569
EKVX | 0.703
LC-2-ad | 0.56
NCI-H1944 | 0.405
NCI-H1975 | 0.425
RERF-LC-KJ | 0.47
ABC-1 | 0.535
NCI-H358 | 0.229
NCI-H650 | 0.386
PC-3 [JPC-3] | 0.394
